According to US20190083437A1, “S- Methylcysteine Sulfoxide For Prostate Cancer Prevention And Treatment” (QUADRAM INSTITUTE BIOSCIENCE, priority 2016, published 2019):

Assays:
[1] = tested on: human prostatic PNT1A cell line; experiment: ATP levels in prostate cell assay (fluorimetric kit); type: cell-based; settings: SMCSO 100 μM or 200 μM, 24 hours exposure, vs control cells
Procedure: The concentration of S-methylsulfoxide used in this study (100 μmol to 200 μmop was similar to that found in urine following consumption of 1.0-1.5 mmoles of S-methylcysteine sulfoxide.
Cells of the human prostatic PNT1A cell line were incubated with SMCSO at 100 μM or 200 μM, these concentrations were chosen as they were consistent with the physiological concentrations of SMCSO measured in the human intervention diet study, for example 2-4 hours after consumption of Beneforté™ broccoli soup the concentration of SMCSO in the urine of study subjects ranged from 42.18 μM to 130.17 μM, see Table 1. ATP levels (nmol/mg protein) in control and SMCSO treated cells were measured fluorimetrically using a commercially available kit (Abcam, ab 8335).

prostate tissue = experiment: Short duration (4-6 weeks) diet intervention study: SMCSO and ADP in prostate biopsy tissue; type: in vivo, human; settings: three 300 g portions per week (6.4 mmoles SMCSO each) for at least 4 weeks, n=9 per arm, p=0.005
Excerpt: A two arm parallel un-blinded short-term intervention with an enhanced dose of broccoli soups was undertaken. The study recruited men who had been diagnosed or were under investigation for prostate cancer and required a transperineal template biopsy as part of their standard clinical care.
Patients recruited onto this study were randomly allocated to one of two arms in which they were required to consume three portions of broccoli and stilton soup per week for at least four weeks prior to their biopsy (i) or to follow their normal diet until the operation date (ii). The broccoli and stilton soups contained glucoraphanin-enriched Beneforte® broccoli. The study was not blinded and involved tissue, blood and urine collection on the same day that patients were scheduled for their diagnostic biopsy. Their habitual intake of cruciferous vegetables and dietary supplements was assessed. […]
SMCSO was measured by following the method described by Bernaert and colleagues (Bernaert, N., et al., Influence of cultivar and harvest time on the amounts of isoalliin and methiin in leek (Allium ampeloprasum var. porrum). J Agric Food Chem, 2012. 60(44): p. 10910-9). […] After centrifugation, the supernatant was diluted with 0.1% formic acid in water, and analysed by LC-MS/MS using an Agilent 6490 mass spectrometer with a photodiode array detector. […]

[2] = SMCSO bioavailability from single dietary supplementation with Beneforte broccoli and stilton soup (plasma and urine over 24 h); type: in vivo, human
Excerpt: Exposure of prostate tissues to S-methylcysteine sulfoxide may occur either through the systemic circulation in the blood stream, or through urinary reflux. Indeed, urinary reflux into prostatic ducts is common knowledge in the field (Kirby R. S. et al. Intra-prostatic urinary reflux: an aetiological factor in abacterial prostatitis. British Journal of Urology 54, 729-731 (1982)). FIGS. 5 and 6 respectively show the plasma concentration and cumulative excretion of S-methylcysteine sulfoxide in urine following consumption of Beneforté™ broccoli (described, for example, in WO99/052345) and Stilton soup containing 1.2 mmoles of S-methylcysteine sulfoxide.
The change in plasma concentration of S-methylcysteine sulfoxide was recorded over 24 hours in ten patients.
Ten patients took part in this study. The total S-methylcysteine sulfoxide excreted represented 23% of that consumed.
A dietary intervention study was carried out on healthy subjects (n=10) whereby a single event of dietary supplementation was carried out with Beneforte™ broccoli and stilton soup, produced according to the recipe as described in Example 1, providing an effective SMCSO dose of 1.2 mmoles. This was followed by urine and blood collection over 24 h. Plasma and urinary concentrations of SMCSO were measured, see FIGS. 5 (plasma) and 6 (urine). SMCSO concentration in blood plasma increased from a baseline level of 0 μM at the start of the 24 h period to a maximum concentration of 24 μM one hour after consumption of the soup. […] The 24 h cumulative urinary concentration was over 100 μmoles SMCSO.

[3] = within 24 h, radioactive SMCSO to humans; cited from earlier work
[4] = tested on: Human prostate PNT1A cells; experiment: Cell assay of SMCSO uptake/accumulation in cells (HPLC of whole cell lysates); type: cell-based; settings: 300 μM SMCSO
Procedure: PNT1A cells were treated with 300μM SMCSO and intracellular levels of SMCSO were quantified following incubation of between 1 h and 72 h. Data shown are means±SD (n=3).
Human prostate PNT1A cells were incubated with 300 μM SMCSO for up to 72 h in triplicate. Whole cell lysates were collected at regular intervals between 0 and 72 h and levels of SMCSO were quantified by HPLC as above. […] Uptake increases up to approximately 30% following 72 h of exposure to SMCSO.

S-methylcysteine sulfoxide [SMCSO]
cellular concentration of ATP [1]: reduced | SMCSO accumulation in prostate biopsy tissue, intervention vs non-intervention arm (prostate tissue): increased accumulation | concentration of SMCSO in urine (up to) ([2]; 0-2 h after consumption, 1.2 mmoles SMCSO): up to 164 uM | likely concentration of SMCSO within a single urination ([2]; 0-2 h after consumption, estimate): > 200 µM | blood plasma levels at the end of the 24 h period ([2]; 1.2 mmoles SMCSO, 24 h): remained elevated above baseline | cumulative urinary SMCSO, mean ([2]; 2-4 hours after dietary supplementation, 1.2 mmoles SMCSO): 71.5 µmol | 24 h cumulative urinary SMCSO ([2]; 24 h, 1.2 mmoles SMCSO): over 100 μmoles | S-methylcysteine sulfoxide excreted in urine (concentration, up to) ([2]; first 0-2 hours, soup containing 1.2 mmoles): up to 163.9 μM | time of maximum plasma concentration after consumption of the soup ([2]; healthy subjects n=10, 1.2 mmoles SMCSO): one | maximum SMCSO concentration in blood plasma ([2]; healthy subjects n=10, single soup portion providing 1.2 mmoles SMCSO, oral): 24 µM | total S-methylcysteine sulfoxide excreted in urine as share of that consumed ([2]; ten patients, 1.2 mmoles, cumulative): 23% | SMCSO excreted un-metabolised within urine [3]: 6-8% | cellular uptake of SMCSO (speed) [4]: rapid, as early as 1 h | intracellular SMCSO uptake as % of exposure ([4]; 72 h of exposure): approximately 30% | intracellular SMCSO level as % of the initial exposure levels ([4]; constant from 1 h for at least 24 h): 10%
